{"source": "paper PMC6829517", "about": "(International Journal of Molecular Sciences, 2019)", "key": {"[1]": {"system": "eight Gram-negative strains", "test": "MIC, broth microdilution", "type": "cell-based", "conditions": "all eight strains tested; summary of Table 1", "description": "(§1) All experiments were performed in triplicate."}, "[2]": {"system": "Escherichia coli MDR 239910", "type": "cell-based", "conditions": "MDR 239910, 24 h", "description": "as §1"}, "[3]": {"system": "Escherichia coli MDR 39255", "type": "cell-based", "conditions": "MDR 39255, 24 h", "description": "as §1"}, "[4]": {"system": "Escherichia coli MDR 208691", "type": "cell-based", "conditions": "MDR 208691, 24 h", "description": "as §1"}, "[5]": {"system": "Salmonella typhimurium SY5015", "type": "cell-based", "conditions": "murium SY5015, 24 h", "description": "as §1"}, "[6]": {"system": "Escherichia coli MDR 246415", "type": "cell-based", "conditions": "MDR 246415, 24 h", "description": "as §1"}, "Bacterial biofilms": {"system": "Bacterial biofilms", "test": "Minimal biofilm eradication concentration (MBEC)", "type": "cell-based", "conditions": "in all cases; peg-lid biofilms, MHBCA, 24 h exposure at 37 °C, OD 620 nm, triplicate", "description": "MBEC was determined as described by Moskowitz et al.. Bacterial biofilms were formed by immersing the pegs of a modified polystyrene microtiter lid into 96-well microtiter plates, each containing 200 µL of Muller-Hinton broth cation adjusted (MHBCA), followed by incubation at 37 °C for 24 h. Pegs were then gently rinsed in a 0.9% w/v NaCl solution and biofilms were exposed to a range of concentrations of antimicrobials for 24 h at 37 °C. Pegs were again rinsed with a 0.9% w/v NaCl solution and biofilms were removed by 10 min sonication. Recovered bacteria were incubated for 24 h at 37 °C. Optical densities at 620 nm were measured in order to determine MBEC values, defined as the lowest concentration of antimicrobial that prevented bacterial regrowth from the treated biofilm. All experiments were performed in triplicate."}, "thermolysin [7]": {"target": "T1, thermolysin (Bacillus thermoproteolyticus, UniProt P00800)", "T1 construct": "purchased Sigma-Aldrich", "T1 sequence (P00800 233-548)": "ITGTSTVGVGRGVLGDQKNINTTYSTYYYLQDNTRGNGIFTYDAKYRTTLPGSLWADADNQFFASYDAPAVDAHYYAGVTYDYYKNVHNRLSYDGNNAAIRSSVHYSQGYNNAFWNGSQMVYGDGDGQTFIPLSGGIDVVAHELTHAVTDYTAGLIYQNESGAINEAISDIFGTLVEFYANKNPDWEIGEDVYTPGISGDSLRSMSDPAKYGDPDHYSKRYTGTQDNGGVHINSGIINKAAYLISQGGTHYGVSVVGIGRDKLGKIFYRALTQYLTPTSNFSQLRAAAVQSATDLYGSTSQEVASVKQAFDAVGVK", "test": "Thermolysin stability assay", "type": "in vitro ADME", "conditions": "thermolysin 1 mg/mL, 50 mM Tris pH 8, 0.5 mM CaCl2, 30 min at 70 °C, LC-MS; loss of 137 Da (Val11-Gly12)", "description": "Materials and reagents. Methanol was purchased from Scharlau, while acetonitrile was obtained […]\nwhile carboxypeptidase Y was purchased from Alfa Aesar. E. coli BL21 (DE3), which was used for heterologous expression, was purchased from Invitrogen. Bacterial strains were isolated from […]\nHinton Broth (MHB) was obtained from Scharlau (Spain).\n10 µL of 0.5 M NaOH was added.\nLC-MS. […] For the isolation and […]\nin 400 µL of H 2O-ACN (1:1). […]\nwas stirred overnight at 40 °C.\nMES, 1 mM CaCl 2 at pH 6.75).\nThe reaction was quenched by\nPepsin. […] 40 µL of pepsin\nFigure S6. RP-HPLC chromatograms and ESI + spectra after 30 min of thermolysin treatment at 70 °C in 50 mM TRIS pH 8, 0.5 mM CaCl 2 buffer. a) New compound, b) native MccJ25 and c) co-injection of the two peptides after the thermolysin cleavage. Conditions: XBridge C18 2.5 µm (4.6 mm x 75 mm) reversed-phase analytical column; linear gradient from 30% to 60% of ACN over 8 […]"}, "pepsin [8]": {"target": "pepsin (Sus scrofa, UniProt P00791)", "sequence (P00791 60-385)": "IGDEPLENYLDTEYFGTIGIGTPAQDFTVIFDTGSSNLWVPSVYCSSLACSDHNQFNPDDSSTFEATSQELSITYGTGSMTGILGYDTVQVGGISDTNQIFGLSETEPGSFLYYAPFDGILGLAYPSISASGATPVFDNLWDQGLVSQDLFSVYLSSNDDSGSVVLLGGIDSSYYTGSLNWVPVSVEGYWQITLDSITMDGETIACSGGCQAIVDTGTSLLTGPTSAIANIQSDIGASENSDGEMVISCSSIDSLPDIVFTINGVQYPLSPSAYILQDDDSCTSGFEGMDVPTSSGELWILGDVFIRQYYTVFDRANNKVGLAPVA", "conditions": "for Hydrolysis by pepsin at 37 °C: pepsin 1 mg/mL in HCl 0.01 M, pH 2, 37 °C, several hours, LC-MS; for Cleavage by pepsin at 50 °C: pH 2, 50 °C, 19 h, RP-HPLC", "description": "Materials and reagents. Methanol was purchased from Scharlau, while acetonitrile was obtained from SDS. NaOH, 2,2,2-trifluoroethanol, pepsin, thermolysin were obtained from Sigma-Aldrich, while carboxypeptidase Y was purchased from Alfa Aesar. E. coli BL21 (DE3), which was used for heterologous expression, was purchased from Invitrogen. Bacterial strains were isolated from clinical specimens in the Microbiology Service of the Hospital Universitari de Bellvitge (Spain).\nCollistin sulfate was supplied by Zhejiang Shenghua Biok Biology Co. LTD, China. Mueller-Hinton Broth (MHB) was obtained from Scharlau (Spain). […]\nThen, 30 µL of NaOH 0.5 M (pH 12) was added, and the mixture was stirred overnight at 40 °C. […]\nPepsin. Purified peptide (20 µg) was dissolved in 150 µL HCl 0.01 M (pH 2). 40 µL of pepsin solution in HCl 0.01 M (1 mg/mL) was added to the peptide solution and incubated for 2-20 h at […]"}, "[9]": {"conditions": "cited from earlier work", "description": "(§2) Moreover, it is stable to highly denaturing conditions, such as 8 M urea and temperatures above 100 °C [6]."}, "[10]": {"system": "chymotrypsin, trypsin and pepsin", "conditions": "cited from earlier work", "description": "as §2"}, "carboxypeptidase Y": {"system": "carboxypeptidase Y", "test": "carboxypeptidase Y solution in MES buffer (50 mM MES, 1 mM CaCl2 at pH 6.75)", "conditions": "25 °C, up to 4 h"}, "pepsin [11]": {"system": "pepsin", "test": "pepsin, temperature increased to 50 °C", "conditions": "up to 19 h"}, "thermolysin [12]": {"system": "thermolysin", "test": "thermolysin in 50 mM TRIS pH 8, 0.5 mM CaCl2 buffer", "conditions": "70 °C, up to 30 min"}, "pepsin [13]": {"system": "pepsin", "test": "pepsin solution in HCl 0.01 M (pH 2)", "conditions": "37 °C, up to 2-20 h"}, "[14]": {"system": "Salmonella enterica ATCC 13076", "conditions": "broth microdilution, MHB, 37 °C, 24 h, visual turbidity, triplicate", "description": "(§3) MIC values were determined by the broth microdilution method and interpreted following the guidelines of the Clinical & Laboratory Standards Institute (CLSI) and European Committee on Antimicrobial Susceptibility Testing (EUCAST). The different strains were grown in Mueller-Hinton broth (MHB) overnight at 37 °C with shaking at 200 rpm. The bacterial cultures were then adjusted to OD625nm of 0.08–0.1 and diluted 1:100 in fresh MHB medium. Next, 5 µL of each diluted suspension was added to 96-well plates previously filled with MHB and serially diluted peptides. […] All experiments were performed in triplicate."}, "[15]": {"system": "Salmonella enterica ATCC 49214", "conditions": "broth microdilution, MHB, 37 °C, 24 h, visual turbidity, triplicate", "description": "as §3"}, "chymotrypsin": {"system": "chymotrypsin", "conditions": "cited from earlier work"}, "[16]": {"test": "0.5 M NaOH in H2O-ACN (1:1)", "conditions": "40 °C, up to 48 h"}, "trypsin": {"system": "trypsin", "conditions": "cited from earlier work"}, "pepsin [17]": {"system": "pepsin", "conditions": "cited from earlier work"}}, "note": "“Also recorded” adds a separate entry of the source. Like-named read-outs stand apart in the source and are kept apart here. Positions of bridges follow the written chain, without caps; N, C: chain ends. Non-standard residues stand in square brackets, D forms with d. Residues, ends and D or L forms follow the SMILES beside them.", "data": [{"compound": "CC[C@H](C)[C@H](NC(=O)CNC(=O)[C@H](NC(=O)[C@H](Cc1ccccc1)NC(=O)[C@H](Cc1ccc(O)cc1)NC(=O)[C@@H]1CCC(=O)NCC(=O)NCC(=O)N[C@@H](C)C(=O)NCC(=O)N[C@@H](Cc2c[nH]cn2)C(=O)N[C@@H](C(C)C)C(=O)N2CCC[C@H]2C(=O)N1)C(C)C)C(=O)NCC(=O)N[C@H](C(=O)N1CCC[C@H]1C(=O)N[C@H](C(=O)N[C@@H](CO)C(=O)N[C@@H](Cc1ccccc1)C(=O)N[C@@H](Cc1ccc(O)cc1)C(=O)NCC(=O)O)[C@@H](C)CC)[C@@H](C)O", "note": "[New Compound] (GGAGHVPEYF[dV]GIGTPISFYG-OH; lactam N-8)", "values": [{"measurement": "MIC values in all cases", "setting": "[1]", "value": "higher than 128 μg/mL"}, {"measurement": "Minimum inhibitory concentration (MIC)", "setting": "[2]", "value": ">128", "unit": "µg/mL"}, {"measurement": "Minimum inhibitory concentration (MIC)", "setting": "[3]", "value": ">256", "unit": "µg/mL"}, {"measurement": "Minimum inhibitory concentration (MIC)", "setting": "[4]", "value": ">128", "unit": "µg/mL"}, {"measurement": "Minimum inhibitory concentration (MIC)", "setting": "[5]", "value": ">128", "unit": "µg/mL"}, {"measurement": "Minimum inhibitory concentration (MIC)", "setting": "[6]", "value": ">128", "unit": "µg/mL"}, {"measurement": "Minimal biofilm eradication concentration (MBEC)", "setting": "Bacterial biofilms", "value": "greater than 128 μg/mL"}, {"measurement": "Outcome of thermolysin treatment", "setting": "thermolysin [7]", "value": "double cleavage between Phe10-Val11 and Gly12-Ile13"}, {"measurement": "Hydrolysis by pepsin at 37 °C", "setting": "pepsin [8]", "value": "no hydrolysis was observed"}, {"measurement": "Cleavage by pepsin at 50 °C", "setting": "pepsin [8]", "value": "no cleavage was detected"}]}, {"compound": "CC[C@H](C)[C@H](NC(=O)CNC(=O)[C@@H](NC(=O)[C@H](Cc1ccccc1)NC(=O)[C@H](Cc1ccc(O)cc1)NC(=O)[C@@H]1CCC(=O)NCC(=O)NCC(=O)N[C@@H](C)C(=O)NCC(=O)N[C@@H](Cc2cnc[nH]2)C(=O)N[C@@H](C(C)C)C(=O)N2CCC[C@H]2C(=O)N1)C(C)C)C(=O)NCC(=O)N[C@H](C(=O)N1CCC[C@H]1C(=O)N[C@H](C(=O)N[C@@H](CO)C(=O)N[C@@H](Cc1ccccc1)C(=O)N[C@@H](Cc1ccc(O)cc1)C(=O)NCC(=O)O)[C@@H](C)CC)[C@@H](C)O", "note": "[Native MccJ25, Microcin J25] (GGAGHVPEYFVGIGTPISFYG-OH; lactam N-8)", "values": [{"measurement": "Outcome of thermolysin treatment", "setting": "thermolysin [7]", "value": "double cleavage between Phe10-Val11 and Gly12-Ile13"}, {"measurement": "Hydrolysis by pepsin at 37 °C", "setting": "pepsin [8]", "value": "no hydrolysis was observed"}, {"measurement": "Cleavage by pepsin at 50 °C", "setting": "pepsin [8]", "value": "no cleavage was detected"}, {"measurement": "Stability to highly denaturing conditions", "setting": "[9]", "value": "stable"}, {"measurement": "Thermal and proteolytic stability against several proteases", "setting": "[10]", "value": "high thermal and proteolytic stability"}]}, {"compound": "GGAGHVPEYFVGIGTPISFYG [new compound]", "values": [{"measurement": "cleaved bond", "setting": "carboxypeptidase Y", "value": "Phe10-Val11; also recorded: Val11-Gly12"}, {"measurement": "not cleaved", "setting": "pepsin [11]", "value": "no cleavage was detected after 19 h"}, {"measurement": "cleaved bond", "setting": "thermolysin [12]", "value": "Phe10-Val11; also recorded: Gly12-Ile13"}, {"measurement": "not cleaved", "setting": "pepsin [13]", "value": "no hydrolysis was observed, even after several hours at pH 2 at 37 °C"}]}, {"compound": "CC[C@H](C)[C@H](NC(=O)CNC(=O)[C@@H](NC(=O)[C@H](Cc1ccccc1)NC(=O)[C@H](Cc1ccc(O)cc1)NC(=O)[C@@H]1CCC(=O)NCC(=O)NCC(=O)N[C@@H](C)C(=O)NCC(=O)N[C@@H](Cc2c[nH]cn2)C(=O)N[C@@H](C(C)C)C(=O)N2CCC[C@H]2C(=O)N1)C(C)C)C(=O)NCC(=O)N[C@H](C(=O)N1CCC[C@H]1C(=O)N[C@H](C(=O)N[C@@H](CO)C(=O)N[C@@H](Cc1ccccc1)C(=O)N[C@@H](Cc1ccc(O)cc1)C(=O)NCC(=O)O)[C@@H](C)CC)[C@@H](C)O", "note": "[Native MccJ25, Microcin J25] (GGAGHVPEYFVGIGTPISFYG-OH; lactam N-8)", "values": [{"measurement": "Minimum inhibitory concentration (MIC)", "setting": "[2]", "value": ">128", "unit": "µg/mL"}, {"measurement": "Minimum inhibitory concentration (MIC)", "setting": "[3]", "value": 0.5, "unit": "µg/mL"}, {"measurement": "Minimum inhibitory concentration (MIC)", "setting": "[4]", "value": ">128", "unit": "µg/mL"}, {"measurement": "Minimum inhibitory concentration (MIC)", "setting": "[5]", "value": ">128", "unit": "µg/mL"}, {"measurement": "Minimal biofilm eradication concentration (MBEC)", "setting": "Bacterial biofilms", "value": "greater than 128 μg/mL"}, {"measurement": "Minimum inhibitory concentration (MIC)", "setting": "[14]", "value": "<0.0625", "unit": "µg/mL"}, {"measurement": "Minimum inhibitory concentration (MIC)", "setting": "[15]", "value": 0.8, "unit": "µg/mL"}]}, {"compound": "GGAGHVPEYFVGIGTPISFYG [MccJ25]", "values": [{"measurement": "cleaved bond", "setting": "carboxypeptidase Y", "value": "Phe10-Val11; also recorded: Val11-Gly12"}, {"measurement": "not cleaved", "setting": "pepsin [11]", "value": "no cleavage was detected after 19 h"}, {"measurement": "cleaved bond", "setting": "thermolysin [12]", "value": "Gly12-Ile13; also recorded: Phe10-Val11"}, {"measurement": "not cleaved", "setting": "chymotrypsin", "value": "high thermal and proteolytic stability"}, {"measurement": "fragment found", "setting": "[16]", "value": "new compound (epimerization of Val11)"}, {"measurement": "not cleaved", "setting": "trypsin", "value": "high thermal and proteolytic stability"}, {"measurement": "not cleaved", "setting": "pepsin [13]", "value": "no hydrolysis was observed, even after several hours at pH 2 at 37 °C"}, {"measurement": "not cleaved", "setting": "pepsin [17]", "value": "high thermal and proteolytic stability"}]}]}
